In patent US11267825B2 (AICURIS GMBH & CO. KG, priority 2017, dated 2022) one finds EC50 and IC50 data, which are given here for 28 molecules.

For one assay, the system named is HBV. Description: Determination of HBV DNA from the supernatants of HepAD38 cells (anti-HBV activity). It is filed as cell-based, hepatitis B virus. Conditions: Hepatitis B virus, read-out: Cell Activity (EC50). The method, boiled down: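 EC50 values were obtained by non-linear regression of HBV DNA copy numbers measured by qPCR against pCH-9/3091 plasmid standards. The DNA came from filtered supernatants collected on day 6. Before that, tetracycline-withdrawn HepAD38 cells had been exposed to serial half-log compound dilutions, with tetracycline-treated cells as the non-producing control.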

The next assay has as its target HBV core protein (UniProt P03146). It is filed as biochemical. Conditions: read-out: Assembly Activity (IC50); BODIPY-FL labelled core protein, assembly started with NaCl, read after 6 min. The method, boiled down: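 Compounds tested at 8 concentrations in 0.5-log steps from 100, 31.6 or 10 μM against 1.0–2.0 μM BODIPY-FL-labelled Cys150 core dimers (residues 1–149), 50 mM HEPES pH 7.5. NaCl ([…] final) triggered assembly; quenching read at 6 min, 477/525 nm, with 2.5 M and 0 M NaCl as controls; EC50 by nonlinear fit.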

[1] abbreviates: 144 h, HBV DNA in HepAD38 supernatant at day 6.

pEC50, pIC50: −log10 of the molar value. Read-outs that look alike come from different tables or passages of the source. Bounds are passed on as bounds.

Sequence of HBV core protein (P03146 whole entry, looked up, the tested form may be a part): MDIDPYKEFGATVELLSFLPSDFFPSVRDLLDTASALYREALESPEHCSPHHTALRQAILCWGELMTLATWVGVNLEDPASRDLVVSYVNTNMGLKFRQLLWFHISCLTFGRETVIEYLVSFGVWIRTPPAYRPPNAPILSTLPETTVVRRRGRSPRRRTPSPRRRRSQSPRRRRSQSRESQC

What is called pEC50 is the EC50 on a negative log10 scale, so that one unit is a factor of ten. For orientation: pIC50 means −log10 of the IC50, conventionally taken in molar units. Regarding `O=C(c1cc2ccccc2[nH]1)N1CCc2nc(NCC(CO)CC3CCC3)sc2C1` (centres unmarked) [Example 227, 2-(cyclobutylmethyl)-3-{[5-(1H-indole-2-carbonyl)-4H,5H,6H,7H-[1,3]thiazolo[5,4-c]pyridin-2-yl]amino}propan-1-ol], in the assay on HBV (setting [1]), the pEC50 was more than 6.00. Also, on HBV core protein, the pIC50 is more than 4.00.
For `O=C(c1cc2ccccc2[nH]1)N1CCc2nc(NC3(CO)CCC3)sc2C1` [Example 48, (1-{[5-(1H-indole-2-carbonyl)-4H,5H,6H,7H-[1,3]thiazolo[5,4-c]pyridin-2-yl]amino}cyclobutyl)methanol], the pEC50 in the assay with HBV (setting [1]) was more than 6.00. In addition, at HBV core protein, the pIC50 is more than 5.30.
With `CN1CCC(C(=O)Nc2nc3c(s2)CN(C(=O)c2cc4ccccc4[nH]2)CC3)CC1` [Example 409, N-[5-(1H-indole-2-carbonyl)-4H,5H,6H,7H-[1,3]thiazolo[5,4-c]pyridin-2-yl]-1-methylpiperidine-4-carboxamide], in the assay on HBV (setting [1]), the pEC50 was more than 6.00. In addition, the pIC50 on HBV core protein is more than 5.30.
The matching figures for `O=C(c1cc2ccccc2[nH]1)N1CCc2nc(OCc3ccccc3)sc2C1` [Example 158, 2-[2-(benzyloxy)-4H,5H,6H,7H-[1,3]thiazolo[5,4-c]pyridine-5-carbonyl]-1H-indole]: 5.00 to 6.00 and more than 4.00.
On to `Nc1nc2c(s1)CN(C(=O)c1cc3cccc(OC(F)(F)F)c3[nH]1)CC2` [Example 174, 5-(7-(trifluoromethoxy)-1H-indole-2-carbonyl)-4H,5H,6H,7H-[1,3]thiazolo[5,4-c]pyridin-2-amine], for which the pEC50 with HBV (setting [1]) was 5.00 to 6.00. In addition, the pIC50 on HBV core protein is more than 5.30.
For the molecule `Cc1nc2c(s1)CN(C(=O)c1cc3c(Cl)cc(Cl)cc3[nH]1)CC2` [Example 188, 4,6-dichloro-2-{2-methyl-4H,5H,6H,7H-[1,3]thiazolo[5,4-c]pyridine-5-carbonyl}-1H-indole], in the assay on HBV (setting [1]), the pEC50 is 5.00 to 6.00. The pIC50 at HBV core protein is 5.00 to 5.30.
The matching figures for `O=C(c1cc2ccccc2[nH]1)N1CCc2nc(NCC(F)(F)F)sc2C1` [Example 118, 5-(1H-indole-2-carbonyl)-N-(2,2,2-trifluoroethyl)-4H,5H,6H,7H-[1,3]thiazolo[5,4-c]pyridin-2-amine]: more than 6.00 and more than 4.00.
The matching figures for `O=C(c1cc2ccccc2[nH]1)N1CCc2nc(CN3CCOCC3)sc2C1` [Example 39, 2-{2-[(morpholin-4-yl)methyl]-4H,5H,6H,7H-[1,3]thiazolo[5,4-c]pyridine-5-carbonyl}-1H-indole]: more than 6.00 and more than 5.30.
In the case of `O=C(c1cc2ccccc2[nH]1)N1CCc2nc(NC[C@@H]3COC[C@@H]3O)sc2C1` [Example 241, (3R,4R)-4-({[5-(1H-indole-2-carbonyl)-4H,5H,6H,7H-[1,3]thiazolo[5,4-c]pyridin-2-yl]amino}methyl)oxolan-3-ol], the negative logarithm of the EC50 (pEC50) in the assay with HBV (setting [1]) was more than 6.00. In addition, the pIC50 on HBV core protein was more than 5.30.
In the case of `CC(C)(C)Nc1nc2c(s1)CN(C(=O)c1cc3ccccc3[nH]1)CC2` [Example 71, N-tert-butyl-5-(1H-indole-2-carbonyl)-4H,5H,6H,7H-[1,3]thiazolo[5,4-c]pyridin-2-amine], the pEC50 in the assay with HBV (setting [1]) is more than 6.00. Besides, the pIC50 at HBV core protein is more than 5.30.
For `O=C(c1cc2c(C(F)F)ccc(F)c2[nH]1)N1CCc2nc(NCC3CCOC3)sc2C1` (centres unmarked) [Example 322, 5-[4-(difluoromethyl)-7-fluoro-1H-indole-2-carbonyl]-N-[(oxolan-3-yl)methyl]-4H,5H,6H,7H-[1,3]thiazolo[5,4-c]pyridin-2-amine], the negative logarithm of the EC50 (pEC50) in the assay with HBV (setting [1]) was more than 6.00. For the same molecule, the pIC50 at HBV core protein was more than 5.30.
Consider `O=C(Nc1nc2c(s1)CN(C(=O)c1cc3c(F)cc(F)cc3[nH]1)CC2)C1CCOCC1` [Example 319, N-[5-(4,6-difluoro-1H-indole-2-carbonyl)-4H,5H,6H,7H-[1,3]thiazolo[5,4-c]pyridin-2-yl]oxane-4-carboxamide], for which the negative-log EC50 (pEC50) in the assay with HBV (setting [1]) was more than 6.00. Also, the pIC50 at HBV core protein is more than 5.30.
Consider `Cc1cc(F)cc2[nH]c(C(=O)N3CCc4nc(NC(=O)C5CCOCC5)sc4C3)cc12` [Example 321, N-[5-(6-fluoro-4-methyl-1H-indole-2-carbonyl)-4H,5H,6H,7H-[1,3]thiazolo[5,4-c]pyridin-2-yl]oxane-4-carboxamide], for which the pEC50 with HBV (setting [1]) is more than 6.00. Also, at HBV core protein, the pIC50 is more than 5.30.
As for `O=C(c1cc2ccccc2[nH]1)N1CCc2nc(CNCc3ccccc3)sc2C1` [Example 74, Benzyl({[5-(1H-indole-2-carbonyl)-4H,5H,6H,7H-[1,3]thiazolo[5,4-c]pyridin-2-yl]methyl})amine], in the assay with HBV (setting [1]), the pEC50 is 5.00 to 6.00. In addition, the pIC50 on HBV core protein is more than 4.00.
The matching figures for `CC(C)(C)OC(=O)N1CCC(CNc2nc3c(s2)CN(C(=O)c2cc4ccccc4[nH]2)CC3)C1` (centres unmarked) [Example 392, tert-butyl 3-({[5-(1H-indole-2-carbonyl)-4H,5H,6H,7H-[1,3]thiazolo[5,4-c]pyridin-2-yl]amino}methyl)pyrrolidine-1-carboxylate]: more than 6.00 and more than 5.30.
Take `CN(CC1CCOC1)c1nc2c(s1)CN(C(=O)c1cc3ccccc3[nH]1)CC2` (centres unmarked) [Example 110, 5-(1H-indole-2-carbonyl)-N-methyl-N-[(oxolan-3-yl)methyl]-4H,5H,6H,7H-[1,3]thiazolo[5,4-c]pyridin-2-amine]: in the assay with HBV (setting [1]), the pEC50 was 5.00 to 6.00. Besides, the pIC50 on HBV core protein is more than 4.00.
As for `O=C(c1cc2ccccc2[nH]1)N1CCc2nc(NCC3CCCOC3)sc2C1` (centres unmarked) [Example 270, 5-(1H-indole-2-carbonyl)-N-[(oxan-3-yl)methyl]-4H,5H,6H,7H-[1,3]thiazolo[5,4-c]pyridin-2-amine], the pEC50 in the assay with HBV (setting [1]) is more than 6.00. Further, the pIC50 on HBV core protein was more than 5.30.
For `CC(C)Nc1nc2c(s1)CN(C(=O)c1cc3ccccc3[nH]1)CC2` [Example 128, 5-(1H-indole-2-carbonyl)-N-(propan-2-yl)-4H,5H,6H,7H-[1,3]thiazolo[5,4-c]pyridin-2-amine], in that order: more than 6.00 and more than 5.30.
As to `CC(O)c1cc(F)cc2[nH]c(C(=O)N3CCc4nc(NCC5(CO)CC5)sc4C3)cc12` (centres unmarked) [Example 249, 1-{6-fluoro-2-[2-({[1-(hydroxymethyl)cyclopropyl]methyl}amino)-4H,5H,6H,7H-[1,3]thiazolo[5,4-c]pyridine-5-carbonyl]-1H-indol-4-yl}ethan-1-ol], in the assay with HBV (setting [1]), the pEC50 was more than 6.00. Also, at HBV core protein, the pIC50 was 5.00 to 5.30.
As to `O=C(c1cc2ccccc2[nH]1)N1CCc2nc(NC3(CO)CC3)sc2C1` [Example 230, (1-{[5-(1H-indole-2-carbonyl)-4H,5H,6H,7H-[1,3]thiazolo[5,4-c]pyridin-2-yl]amino}cyclopropyl)methanol], the pEC50 in the assay on HBV (setting [1]) was more than 6.00. The pIC50 on HBV core protein was more than 5.30.
As for `CC(O)CNc1nc2c(s1)CN(C(=O)c1cc3c(Cl)cc(F)cc3[nH]1)CC2` (centres unmarked) [Example 142, 1-{[5-(4-chloro-6-fluoro-1H-indole-2-carbonyl)-4H,5H,6H,7H-[1,3]thiazolo[5,4-c]pyridin-2-yl]amino}propan-2-ol], the pEC50 in the assay on HBV (setting [1]) is more than 6.00. Besides, the pIC50 at HBV core protein is more than 5.30.
For `O=C(c1cc2c(Cl)cc(F)cc2[nH]1)N1CCc2nc(NC3CCOC3)sc2C1` (centres unmarked) [Example 140, 5-(4-chloro-6-fluoro-1H-indole-2-carbonyl)-N-(oxolan-3-yl)-4H,5H,6H,7H-[1,3]thiazolo[5,4-c]pyridin-2-amine], the pEC50 with HBV (setting [1]) was more than 6.00. The pIC50 on HBV core protein was more than 5.30.
Regarding `Nc1nc2c(s1)CN(C(=O)c1cc3c(CO)cccc3[nH]1)CC2` [Example 9, (2-{2-amino-4H,5H,6H,7H-[1,3]thiazolo[5,4-c]pyridine-5-carbonyl}-1H-indol-4-yl)methanol], the pEC50 in the assay with HBV (setting [1]) was 5.00 to 6.00. Moreover, the pIC50 at HBV core protein was 5.00 to 5.30.
For the molecule `NC(=O)c1nc2c(s1)CN(C(=O)c1cc3ccccc3[nH]1)CC2` [Example 201, 5-(1H-indole-2-carbonyl)-4H,5H,6H,7H-[1,3]thiazolo[5,4-c]pyridine-2-carboxamide], the pEC50 in the assay on HBV (setting [1]) was 5.00 to 6.00. Further, the pIC50 at HBV core protein is more than 4.00.
Take `N#Cc1ccc(F)c2[nH]c(C(=O)N3CCc4nc(NCC5CCOC5)sc4C3)cc12` (centres unmarked) [Example 117, 7-fluoro-2-(2-{[(oxolan-3-yl)methyl]amino}-4H,5H,6H,7H-[1,3]thiazolo[5,4-c]pyridine-5-carbonyl)-1H-indole-4-carbonitrile]: in the assay with HBV (setting [1]), the pEC50 is 5.00 to 6.00. At HBV core protein, the pIC50 is more than 4.00.
As to `CC1(Nc2nc3c(s2)CN(C(=O)c2cc4ccccc4[nH]2)CC3)CCOCC1` [Example 69, 5-(1H-indole-2-carbonyl)-N-(4-methyloxan-4-yl)-4H,5H,6H,7H-[1,3]thiazolo[5,4-c]pyridin-2-amine], in the assay on HBV (setting [1]), the pEC50 was more than 6.00. Besides, the pIC50 at HBV core protein was more than 5.30.
`CC(C)OC(=O)[C@H](C)NP(=O)(OCCNc1nc2c(s1)CN(C(=O)c1cc3c(F)cc(F)cc3[nH]1)CC2)Oc1ccccc1` (stereo partly drawn) [Example 100, Propan-2-yl (2S)-2-{[(2-{[5-(4,6-difluoro-1H-indole-2-carbonyl)-4H,5H,6H,7H-[1,3]thiazolo[5,4-c]pyridin-2-yl]amino}ethoxy)(phenoxy)phosphoryl]amino}propanoate]: the pEC50 with HBV (HePAD38, 144 h) was 5.00 to 6.00. For the same molecule, the pIC50 on HBV core protein was more than 4.00.
For the molecule `O=C(c1cc2ccccc2[nH]1)N1CCc2nc(NC3CCOC3)sc2C1` (centres unmarked) [Example 180, 5-(1H-indole-2-carbonyl)-N-(oxolan-3-yl)-4H,5H,6H,7H-[1,3]thiazolo[5,4-c]pyridin-2-amine], the pEC50 in the assay with HBV (setting [1]) was more than 6.00. For the same molecule, the pIC50 on HBV core protein is more than 5.30.
